Test results: ChEMBL document CHEMBL1153535, “Nitazoxanide kills replicating and nonreplicating Mycobacterium tuberculosis and evades resistance” (J Med Chem, 2009)
In brackets after ≈: the same amount, converted by molar mass.

How the values were obtained:
[1] = system: Mycobacterium tuberculosis; assay: Antimycobacterial activity against non-replicating Mycobacterium tuberculosis H37Rv at 125 ug/mL assessed as reduction of log10CFU/mL after 4 days relative to control; type: functional
[2] = system: Mycobacterium tuberculosis; assay: Antimycobacterial activity against Mycobacterium tuberculosis H37Rv after 8 days in absence of BSA; type: functional; settings: 192 h
[3] = system: Mycobacterium tuberculosis; assay: Antimycobacterial activity against replicating Mycobacterium tuberculosis H37Rv at 62 ug/mL assessed as reduction of log10CFU/mL after 4 days; type: functional
Cryptosporidium = assay: Antimicrobial activity against Cryptosporidium; type: functional
[4] = system: Mycobacterium tuberculosis; assay: Antimycobacterial activity against Mycobacterium tuberculosis H37Rv in 7H11 solid medium after 7 days; type: functional; settings: 168 h
[5] = system: Mycobacterium tuberculosis; assay: Antimycobacterial activity against replicating Mycobacterium tuberculosis H37Rv at 62 ug/mL assessed as reduction of log10CFU/mL; type: functional, organism-based; settings: TDE = time-dependent effect
[6] = system: Mycobacterium tuberculosis; assay: Antimycobacterial activity against Mycobacterium tuberculosis H37Rv in 7H9 liquid medium after 7 days; type: functional; settings: 168 h
[7] = system: Mycobacterium tuberculosis; assay: Antimycobacterial activity against Mycobacterium tuberculosis H37Rv after 8 days in presence of 0.04 to 5 mg/mL of BSA; type: functional; settings: 192 h
[8] = system: Mycobacterium tuberculosis; assay: Antimycobacterial activity against replicating Mycobacterium tuberculosis H37Rv at 62 ug/mL assessed as reduction of log10CFU/mL after 10 days; type: functional
[9] = system: Mycobacterium tuberculosis; assay: Antimycobacterial activity against non-replicating Mycobacterium tuberculosis H37Rv at 62 ug/mL assessed as reduction of log10CFU/mL after 6 days relative to control; type: functional
[10] = system: Mycobacterium tuberculosis; assay: Antimycobacterial activity against replicating Mycobacterium tuberculosis H37Rv at 125 ug/mL assessed as reduction of log10CFU/mL after 4 days relative to control; type: functional
Giardia = assay: Antimicrobial activity against Giardia; type: functional, organism-based
[11] = Cmax in human plasma at 500 mg, po; type: ADME, organism-based; parameters: dose 500 mg, route oral

## CC(=O)Oc1ccccc1C(=O)Nc1ncc([N+](=O)[O-])s1 [NITAZOXANIDE]
[1]
  Activity: 6
[2]
  MIC: 1 µg/mL (≈ 3.25 µM)
[3]
  Activity: 1
Cryptosporidium
  MIC: 10 µg/mL (≈ 32.5 µM)
[4]
  MIC: 16 µg/mL (≈ 52.1 µM)
[5]
  Activity: tde
[6]
  MIC: 16 µg/mL (≈ 52.1 µM)
[7]
  MIC: 16 µg/mL
[8]
  Activity: 3.5
[9]
  Activity: >=5
[10]
  Activity: 2
Giardia
  IC50: 2.5 µg/mL (≈ 8.14 µM)

## O=C(Nc1ncc([N+](=O)[O-])s1)c1ccccc1O [TIZOXANIDE]
[11]
  Cmax: 10600 ng/mL
[6]
  MIC: 16 µg/mL (≈ 60.3 µM)
